How the values were obtained:
[1] = target: GSK3ß (Homo sapiens, UniProt P49841); conditions: literature; cited from earlier work
[2] = system: EGABA; assay: Perforated patch EGABA in SCDH lamina-II neurons of treated mice; type: in vivo, mouse; conditions: slices of PSNL juvenile mice treated with KP 30 mg/kg
[3] = system: inflammatory pain, evoked by peripheral tissue injection of CFA; assay: CFA inflammatory pain model; type: in vivo, mouse
Protocol: For pain-related behavior, mechanical allodynia was assessed with von Frey filaments (Ugo Basile, Italy). The mice were placed on a 5×5-mm wire-mesh grid floor in individual compartments to avoid visual stimulation and allowed to adapt for 0.5 h prior to the von Frey test. The von Frey filament was then applied to the middle of the plantar surface of the hind paw with 5 g force. The withdrawal responses following the hind paw stimulation were measured at least three times, and the mechanical allodynia, which was defined as an increase in the number of withdrawal responses to the stimulation, was compared. In addition, paws were stimulated with heat from underneath applied by an infrared beam (Hargreaves' test apparatus, IR level 40; Ugo Basile), and withdrawal latencies were recorded. […] Thus, in vivo, KP functions as an analgesic when administered systemically in injury-related pain models.

[4] = system: brain reward mechanisms; assay: Conditioned place preference (CPP); type: in vivo, mouse; conditions: 30 mg/kg i.p.; KP vs vehicle
Protocol: Conditioned place preference (CPP) was conducted using a CPP box, which consists of two conditioning chambers distinguished by visual and sensory cues, along with a small buffering chamber. All mice received a 3-day preconditioning habituation period with free access to both conditioning chambers and the time spent in each chamber was recorded for 15 min on day 3 after habituation. On conditioning days (day 4-10), mice first received the vehicle control (i.p. 5% DMSO, 5% Tween-80 in normal saline) paired with a randomly chosen chamber in the morning. After 4 hours, mice received KP (i.p. 30 mg/kg) or vehicle, paired with the other chamber. During the conditioning, mice were allowed to stay only in the paired chamber for 15 min without access to other chambers. On test day (d11), mice were placed in the buffering chamber with free access to both conditioning chambers and choice behavior was recorded for 15 min. The CPP scores were calculated as post-conditioning time minus preconditioning time spent in the paired chamber.
With these beneficial effects of KP on pathologic pain and itch, whether KP had undesirable effects on the CNS in terms of sedation, impairment of motor stamina, balance and coordination was assessed. […]

[5] = target: T1, GSK3β (Rattus norvegicus, UniProt P18266); assay: DARTS assay, GSK3β; type: binding; conditions: 20 μM KP; independent of detergent treatment
T1 construct: endogenous in cells; host or cells: primary rat cortical neurons
Protocol: Cultured primary rat cortical neurons were treated with either vehicle DMSO (0.1%) or 20 μM KP for 30 h. Cells were lysed in ice-cold lysis buffer (Tris.Cl pH8 50 mM, NaCl 150 mM, NP40 0.5%, N-dodecyl-b-D-maltoside 0.5%, Phosphatase Inhibitor (Pierce #88667) and Protease Inhibitor (Roche #11836153001)). Protein concentrations were determined by Bio-Rad DC Protein Assay kit using bovine albumin as standard. All steps were performed on ice. Samples were warmed to room temperature and digested with pronase (final concentration 1:500) for 30 min at 30° C. Digestion was halted using 0.5M EDTA. Only proteins not bound to KP were digested. The protein mixture was dialyzed using dialysis cassettes (Thermo Fisher 66203, 2K MWCO) and analyzed by LC-MS/MS method to identify proteins that are bound to KP, the latter step carried out in the Duke Proteomics Core Laboratory.
A drug affinity responsive target stability (DARTS) assay (Lomenick, et al., 2009, Proc Natl Acad Sci USA 106:21984-21989) was used to study direct binding of KP to GSK3ß (FIG. 8A) in primary cortical neurons. The findings were consistent with previous reports in cell lines (Knockaert, et al., 2002, The Journal of biological chemistry 277:25493-25501) yet novel in primary neurons. […]

Chain of GSK3ß (P49841 whole entry): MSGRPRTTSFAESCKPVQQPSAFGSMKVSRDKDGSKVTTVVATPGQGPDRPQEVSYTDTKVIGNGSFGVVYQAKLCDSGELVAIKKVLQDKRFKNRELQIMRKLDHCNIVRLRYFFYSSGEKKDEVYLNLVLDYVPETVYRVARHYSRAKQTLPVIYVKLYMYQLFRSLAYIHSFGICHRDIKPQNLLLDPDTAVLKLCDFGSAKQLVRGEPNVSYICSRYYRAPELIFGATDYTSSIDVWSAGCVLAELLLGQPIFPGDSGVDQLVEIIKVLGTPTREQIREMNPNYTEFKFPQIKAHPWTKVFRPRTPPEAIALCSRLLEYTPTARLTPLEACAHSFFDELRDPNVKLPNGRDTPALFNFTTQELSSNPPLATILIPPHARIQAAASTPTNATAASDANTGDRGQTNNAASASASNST
T1 sequence (P18266 whole entry): as the sequence (P49841 whole entry) above, with V240M, T390P, T392A, A400T, T402A counted along it

## O=C1Cc2c([nH]c3ccc(Br)cc23)-c2ccccc2N1 [kenpaullone, 9-bromo-7,12-dihydro-indolo [3,2-d] [1]benzazepin-6(5H)-one]
[1]
  potency of GSK3ß inhibition among known targets: highest potency
[2]
  EGABA: significant hyperpolarization
[3]; KP 10 and 30 mg/kg, no significant difference between doses
  sensitized withdrawal thresholds to mechanical cues: significantly less sensitive
[3]; both low and high dose KP
  thermal pain threshold: significantly less sensitive only at day 7
[4]
  CPP scores: No significant difference in CPP scores
[5]
  binding of KP to GSK3ß: documented

Reference: patent publication US20220281930A1, “COMPOSITIONS AND METHODS FOR THE TREATMENT OF PATHOLOGICAL PAIN AND ITCH” (DUKE UNIVERSITY, priority 2019, published 2022)
